This is an account of results in ChEMBL document CHEMBL1146065, “Structure-based optimization of azole antifungal agents by CoMFA, CoMSIA, and molecular docking” (2006).

Values after ≈ are worked out from the molar mass of the structure shown.

For one assay, the system named is Candida parapsilosis. The assay is described as follows: Antifungal activity against Candida parapsilosis. The class given is functional. The following applies: Lodderomyces parapsilosis.
In another assay the test system is Trichophyton benhamiae. The assay is described as follows: Antifungal activity against Trichophyton mentagrophytes. The class given is functional, Arthroderma benhamiae.
Another assay deals with Epidermophyton floccosum. Kind of assay: Antifungal activity against Epidermophyton floccosum. The class given is functional.
The next assay deals with Sporothrix schenckii. The assay is described as follows: Antifungal activity against Sporothrix schenckii. Type of assay: functional.
The test system of the next assay is Trichophyton rubrum. Kind of assay: Antifungal activity against Trichophyton rubrum. The class given is functional.
The next assay deals with Aspergillus fumigatus. Kind of assay: Antifungal activity against Aspergillus fumigatus. Type of assay: functional.
In another assay the test system is Nannizzia gypsea. The assay is described as follows: Antifungal activity against Microsporum gypseum. The class given is functional.
In a further assay the test system is Trichophyton violaceum. The assay is described as follows: Antifungal activity against Trichophyton violaceum. The class given is functional.
The next assay concerns Microsporum. The assay is described as follows: Antifungal activity against Microsporum lanosum. Type of assay: functional.
A further assay relates to Candida tropicalis. The assay is described as follows: Antifungal activity against Candida tropicalis. The class given is functional.
The test system of the next assay is Candida albicans. The assay is described as follows: Antifungal activity against Candida albicans. Type of assay: functional.
The next assay deals with Cryptococcus neoformans. Kind of assay: Antifungal activity against Cryptococcus neoformans. The class given is functional.
Another assay relates to Fonsecaea pedrosoi. Kind of assay: Antifungal activity against Fonsecaea pedrosoi. Type of assay: functional.

A word on the MIC80: it is an inhibitory concentration at the 80% level, which refers to growth in some studies and to a panel of isolates in others. For the compound `CN(Cc1ccccc1F)CC(O)(Cn1cncn1)c1ccc(F)cc1F` (stereo not given), the MIC80 in the assay with Candida parapsilosis is at most 0.125 µg/mL; against Trichophyton benhamiae, below 0.0625 µg/mL; against Epidermophyton floccosum it was below 0.0625 µg/mL; in the assay on Sporothrix schenckii, 64 µg/mL (≈ 170 µM); in the assay with Trichophyton rubrum, 32 µg/mL (≈ 85 µM); against Aspergillus fumigatus it was 8 µg/mL (≈ 21.3 µM). Besides, the MIC80 in the assay on Nannizzia gypsea was 8 µg/mL (≈ 21.3 µM); in the assay on Trichophyton violaceum, 2 µg/mL (≈ 5.31 µM); with Microsporum, 0.5 µg/mL (≈ 1.33 µM); with Candida tropicalis, 0.25 µg/mL (≈ 0.664 µM); against Candida albicans it was 0.5 µg/mL (≈ 1.33 µM); against Cryptococcus neoformans it was 0.5 µg/mL (≈ 1.33 µM). The compound further came in with an MIC80 with Fonsecaea pedrosoi of 1 µg/mL (≈ 2.66 µM).

For the compound `CN(Cc1ccc(Br)cc1F)CC(O)(Cn1cncn1)c1ccc(F)cc1F` (stereo not given), the MIC80 against Candida parapsilosis was at most 0.125 µg/mL; against Trichophyton benhamiae, below 0.0625 µg/mL; in the assay with Epidermophyton floccosum it was below 0.0625 µg/mL; in the assay on Sporothrix schenckii it was 64 µg/mL (≈ 141 µM); in the assay with Trichophyton rubrum, 0.25 µg/mL (≈ 0.549 µM); against Aspergillus fumigatus, 0.5 µg/mL (≈ 1.1 µM). Further, the MIC80 in the assay on Nannizzia gypsea is 32 µg/mL (≈ 70.3 µM); in the assay on Trichophyton violaceum it was 2 µg/mL (≈ 4.39 µM); in the assay with Microsporum, 1 µg/mL (≈ 2.2 µM); in the assay on Candida tropicalis, at most 0.125 µg/mL; against Candida albicans it was 0.032 µg/mL (≈ 0.0703 µM); against Cryptococcus neoformans, at most 0.125 µg/mL. This compound registered an MIC80 in the assay with Fonsecaea pedrosoi of at most 0.125 µg/mL.

Regarding `CN(Cc1ccc(Cl)c(Cl)c1)CC(O)(Cn1cncn1)c1ccc(F)cc1F` (stereo not given), the MIC80 in the assay with Candida parapsilosis is 1 µg/mL (≈ 2.34 µM); against Trichophyton benhamiae, below 0.0625 µg/mL; with Epidermophyton floccosum, below 0.0625 µg/mL; against Sporothrix schenckii it was 32 µg/mL (≈ 74.9 µM); against Trichophyton rubrum it was at most 0.125 µg/mL; in the assay on Aspergillus fumigatus it was 4 µg/mL (≈ 9.36 µM). The MIC80 against Nannizzia gypsea is 16 µg/mL (≈ 37.4 µM); with Trichophyton violaceum, 4 µg/mL (≈ 9.36 µM); against Microsporum it was 8 µg/mL (≈ 18.7 µM); against Candida tropicalis, at most 0.125 µg/mL; against Candida albicans, 0.016 µg/mL (≈ 0.0374 µM); against Cryptococcus neoformans it was at most 0.125 µg/mL. The MIC80 against Fonsecaea pedrosoi is at most 0.125 µg/mL.

Take `Cc1ccc(C(=O)Nc2ccc(CN(C)CC(O)(Cn3cncn3)c3ccc(F)cc3F)cc2)cc1` (stereo not given): the MIC80 is 0.031 µg/mL (≈ 0.0631 µM) in the assay with Candida parapsilosis; at most 0.125 µg/mL against Trichophyton rubrum; 32 µg/mL (≈ 65.1 µM) against Aspergillus fumigatus; 2 µg/mL (≈ 4.07 µM) against Microsporum; 0.016 µg/mL (≈ 0.0326 µM) in the assay with Candida tropicalis; 0.016 µg/mL (≈ 0.0326 µM) against Candida albicans. In addition, the results for the MIC80 against Cryptococcus neoformans and with Fonsecaea pedrosoi were 0.5 µg/mL (≈ 1.02 µM) and 0.25 µg/mL (≈ 0.509 µM), respectively.

Take `CN(Cc1ccc(F)cc1Br)CC(O)(Cn1cncn1)c1ccc(F)cc1F` (stereo not given): the MIC80 with Candida parapsilosis is 0.25 µg/mL (≈ 0.549 µM); in the assay on Trichophyton benhamiae, 0.125 µg/mL (≈ 0.275 µM); in the assay on Epidermophyton floccosum, below 0.0625 µg/mL; with Sporothrix schenckii, 64 µg/mL (≈ 141 µM); with Trichophyton rubrum, 1 µg/mL (≈ 2.2 µM); with Aspergillus fumigatus, 4 µg/mL (≈ 8.79 µM). Further, the MIC80 in the assay with Nannizzia gypsea is 32 µg/mL (≈ 70.3 µM); with Trichophyton violaceum it was 2 µg/mL (≈ 4.39 µM); in the assay on Microsporum it was 4 µg/mL (≈ 8.79 µM); against Candida tropicalis, at most 0.125 µg/mL; against Candida albicans it was 0.032 µg/mL (≈ 0.0703 µM); in the assay with Cryptococcus neoformans, at most 0.125 µg/mL. The same compound showed an MIC80 in the assay with Fonsecaea pedrosoi of 0.25 µg/mL (≈ 0.549 µM).

`CN(Cc1ccc(NC(=O)c2ccc([N+](=O)[O-])cc2)cc1)CC(O)(Cn1cncn1)c1ccc(F)cc1F` (stereo not given): the MIC80 with Candida parapsilosis is 0.125 µg/mL (≈ 0.239 µM); in the assay with Trichophyton rubrum it was 0.5 µg/mL (≈ 0.957 µM); against Aspergillus fumigatus, above 64 µg/mL; against Microsporum, 4 µg/mL (≈ 7.66 µM); against Candida tropicalis, 0.5 µg/mL (≈ 0.957 µM); in the assay with Candida albicans, 0.0625 µg/mL (≈ 0.12 µM). In addition, the figures for the MIC80 against Cryptococcus neoformans and with Fonsecaea pedrosoi were 0.5 µg/mL (≈ 0.957 µM) and 0.25 µg/mL (≈ 0.478 µM), respectively.

Turning to `CN(Cc1ccc(NC(=O)c2cccc([N+](=O)[O-])c2)cc1)CC(O)(Cn1cncn1)c1ccc(F)cc1F` (stereo not given), the MIC80 with Candida parapsilosis amounted to 16 µg/mL (≈ 30.6 µM); in the assay on Trichophyton rubrum, 0.25 µg/mL (≈ 0.478 µM); with Aspergillus fumigatus it was 64 µg/mL (≈ 122 µM); against Microsporum, 8 µg/mL (≈ 15.3 µM); in the assay on Candida tropicalis, 4 µg/mL (≈ 7.66 µM); with Candida albicans it was 16 µg/mL (≈ 30.6 µM). Besides, the MIC80 in the assay on Cryptococcus neoformans and in the assay with Fonsecaea pedrosoi was 0.5 µg/mL (≈ 0.957 µM) throughout.

With `CN(Cc1ccc(NC(=O)c2ccccc2Cl)cc1)CC(O)(Cn1cncn1)c1ccc(F)cc1F` (stereo not given), the MIC80 against Candida parapsilosis turned out to be 0.25 µg/mL (≈ 0.488 µM); in the assay with Trichophyton rubrum it was 4 µg/mL (≈ 7.81 µM); in the assay on Aspergillus fumigatus it was 32 µg/mL (≈ 62.5 µM); with Microsporum, 2 µg/mL (≈ 3.91 µM); with Candida tropicalis, 0.5 µg/mL (≈ 0.977 µM); with Candida albicans, 0.0625 µg/mL (≈ 0.122 µM). In addition, the MIC80 with Cryptococcus neoformans and against Fonsecaea pedrosoi was 2 µg/mL (≈ 3.91 µM) each time.

For `CN(Cc1ccc(NC(=O)c2ccc(Cl)cc2)cc1)CC(O)(Cn1cncn1)c1ccc(F)cc1F` (stereo not given), the MIC80 against Candida parapsilosis is 0.031 µg/mL (≈ 0.0606 µM); against Trichophyton rubrum, at most 0.125 µg/mL; in the assay on Aspergillus fumigatus, 32 µg/mL (≈ 62.5 µM); in the assay on Microsporum, 8 µg/mL (≈ 15.6 µM); against Candida tropicalis, 0.016 µg/mL (≈ 0.0313 µM); against Candida albicans it was 0.016 µg/mL (≈ 0.0313 µM). Moreover, the MIC80 is 0.25 µg/mL (≈ 0.488 µM) against Cryptococcus neoformans and at most 0.125 µg/mL against Fonsecaea pedrosoi.

`CN(Cc1ccccc1Cl)CC(O)(Cn1cncn1)c1ccc(F)cc1F` (stereo not given): the MIC80 with Candida parapsilosis is 0.25 µg/mL (≈ 0.636 µM); against Trichophyton benhamiae, below 0.0625 µg/mL; in the assay on Epidermophyton floccosum, below 0.0625 µg/mL; in the assay on Sporothrix schenckii it was 32 µg/mL (≈ 81.5 µM); against Trichophyton rubrum it was at most 0.125 µg/mL; against Aspergillus fumigatus, 8 µg/mL (≈ 20.4 µM). Besides, the MIC80 is 4 µg/mL (≈ 10.2 µM) with Nannizzia gypsea; 0.5 µg/mL (≈ 1.27 µM) against Trichophyton violaceum; 0.25 µg/mL (≈ 0.636 µM) against Microsporum; at most 0.125 µg/mL in the assay on Candida tropicalis; 0.032 µg/mL (≈ 0.0815 µM) against Candida albicans; at most 0.125 µg/mL against Cryptococcus neoformans. Further, the MIC80 with Fonsecaea pedrosoi amounted to 0.25 µg/mL (≈ 0.636 µM).
